Where two headings read alike, the source gives them in different places. Starred links: 1 amine or outer side, 2 acyl side, 3 side chain; linkers in the order of their positions; H or OH if unused. Positions of bridges follow the written chain, without caps; N, C: chain ends. Non-standard residues stand in square brackets, D forms with d. Residues, ends and D or L forms follow the SMILES beside them. ξ: configuration not given here. Phe(3-CN) = N#Cc1cccc(C[C@H](N)C(=O)O)c1; Phe(3-Me) = Cc1cccc(C[C@H](N)C(=O)O)c1; γGlu = O=C(O)[C@H](CCC(=O)[*:2])N[*:1]; 1Nal = N[C@@H](Cc1cccc2ccccc12)C(=O)O; 2Nal = N[C@@H](Cc1ccc2ccccc2c1)C(=O)O; βAsp = O=C(O)[C@H](CC(=O)[*:2])N[*:1]; Cit = NC(=O)NCCC[C@H](N)C(=O)O; NMeL = CN[C@@H](CC(C)C)C(=O)O; Ahp(2) = CCCCC[C@H](N)C(=O)O; NMeNle = CCCC[C@H](NC)C(=O)O; Tle = CC(C)(C)[C@H](N)C(=O)O; NHexGly = CCCCCCNCC(=O)O; Nle = CCCC[C@H](N)C(=O)O; Orn = NCCC[C@H](N)C(=O)O; Aun = NCCCCCCCCCCC(=O)O; AEEA = NCCOCCOCC(=O)O; ξS = NC(CO)C(=O)O
Target: T1, mouse VISTA (mVISTA) (Mus musculus, UniProt Q9D659)
T1 construct: expressed in transfected cells; host or cells: Human embryonic kidney 293T cells
T1 sequence (Q9D659 33-308): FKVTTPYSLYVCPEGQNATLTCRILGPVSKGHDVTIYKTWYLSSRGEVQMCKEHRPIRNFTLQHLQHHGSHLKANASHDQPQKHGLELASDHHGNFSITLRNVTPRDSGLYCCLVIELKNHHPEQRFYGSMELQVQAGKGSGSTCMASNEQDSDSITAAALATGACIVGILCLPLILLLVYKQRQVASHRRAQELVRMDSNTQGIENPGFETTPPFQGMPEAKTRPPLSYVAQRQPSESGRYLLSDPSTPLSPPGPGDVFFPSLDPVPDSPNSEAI
Assay: Cell-Based Binding High-Content Assay For mVISTA (HC CBA mVISTA)
In short: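 mVISTA-293T, 4,000 cells/well; cpd ± washout step; biotin-peptide 2 nM final, 30 min RT; SA-Alexa 647 30 min; formaldehyde/Hoechst fix; HCS imaging; 4PL IC50.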

SMILES	IC50 (read-out: HC CBA mVISTA IC50)	further results
CCCCCCN1CC(=O)N[C@@H](Cc2ccc(O)cc2)C(=O)N[C@@H](CC(C)C)C(=O)N[C@@H](CC(N)=O)C(=O)N[C@@H](CCCNC(=N)N)C(=O)N(C)[C@@H](CC(C)C)C(=O)N[C@@H](CCCCC)C(=O)N2CCC[C@H]2C(=O)N[C@@H](C(C)(C)C)C(=O)N[C@@H](CC(=O)O)C(=O)N[C@H](C(=O)N[C@@H](CC(=O)NCCOCCOCC(=O)N[C@@H](CC(=O)O)C(=O)NCCOCCOCC(=O)NCCCCCCCCCCC(=O)O)C(=O)O)CSCC(=O)N[C@@H](Cc2ccccc2)C(=O)N[C@@H](Cc2c[nH]c3ccccc23)C(=O)N[C@@H](CC(=O)O)C1=O [compound 2032] ({CH2CO}-FWD[NHexGly]YLNR[NMeL][Ahp(2)]P[Tle]DC[βAsp][AEEA]D[AEEA][Aun]-OH; thioether N-14)		IC50 (cell-based binding high-content assay, mVISTA, read-out: HC CBA miPr ISTA IC50): 28.1 nM
CCCCCCN1CC(=O)N[C@@H](Cc2ccc(O)cc2)C(=O)N[C@@H](CCCCC)C(=O)NCC(=O)N[C@@H](CCCNC(=N)N)C(=O)N[C@@H](CC(C)C)C(=O)N[C@@H](CCCCC)C(=O)N2CCC[C@H]2C(=O)N[C@@H](C(C)C)C(=O)N[C@@H](CO)C(=O)N[C@H](C(=O)NCCOCCOCC(=O)N[C@@H](CCC(=O)NCCOCCOCC(=O)NCCCCCCCCCCC(=O)O)C(=O)O)CSCC(=O)N[C@@H](Cc2ccccc2)C(=O)N[C@@H](Cc2ccc(O)cc2)C(=O)N[C@@H](CC(=O)O)C1=O [compound 2215] ({CH2CO}-FYD[NHexGly]Y[Ahp(2)]GRL[Ahp(2)]PVSC[AEEA][γGlu][AEEA][Aun]-OH; thioether N-14)	28.3 nM	
CCCCCCN1CC(=O)N[C@@H](Cc2ccc(O)cc2)C(=O)N[C@@H](CCCCC)C(=O)N[C@@H](CC(N)=O)C(=O)N[C@@H](CCCNC(=N)N)C(=O)N(C)[C@@H](CCCC)C(=O)N[C@@H](CCCCC)C(=O)N2CCC[C@H]2C(=O)N[C@@H](C(C)C)C(=O)N[C@@H](C(C)C)C(=O)N[C@H](C(=O)NCC(=O)O)CSCC(=O)N[C@@H](Cc2ccccc2)C(=O)N[C@@H](Cc2c[nH]c3ccccc23)C(=O)N[C@@H](CC(=O)O)C1=O [Example 1385] ({CH2CO}-FWD[NHexGly]Y[Ahp(2)]NR[NMeNle][Ahp(2)]PVVCG-OH; thioether N-14)	10.5 nM	
CCCCCCN1CC(=O)N[C@@H](Cc2ccc(O)cc2)C(=O)N[C@@H](CCCC)C(=O)N[C@@H](CC(N)=O)C(=O)N[C@@H](CCCNC(=N)N)C(=O)N[C@@H](CC(C)C)C(=O)N[C@@H](CCCCC)C(=O)N2CCC[C@H]2C(=O)N[C@@H](C(C)C)C(=O)N[C@@H](CO)C(=O)N[C@H](C(=O)NCC(=O)O)CSCC(=O)N[C@@H](Cc2cccc3ccccc23)C(=O)N[C@@H](Cc2ccc(O)cc2)C(=O)N[C@@H](CC(=O)O)C1=O [compound 1452] ({CH2CO}-[1Nal]YD[NHexGly]Y[Nle]NRL[Ahp(2)]PVSCG-OH; thioether N-14)		IC50 (the 20th table, scaffold drawing 23, read-out: HC CBA mVISTA IC50): 19.9 nM
CCCCCCN1CC(=O)N[C@@H](Cc2ccc(O)cc2)C(=O)N[C@@H](CC(C)C)C(=O)NCC(=O)N[C@@H](CCCNC(=N)N)C(=O)N[C@@H](CCCCN)C(=O)N[C@@H](CCCCC)C(=O)N2CCC[C@H]2C(=O)N[C@@H](C(C)C)C(=O)N[C@@H](CO)C(=O)N[C@H](C(=O)NCC(=O)O)CSCC(=O)N[C@@H](Cc2ccccc2)C(=O)N[C@@H](Cc2ccc(O)cc2)C(=O)N[C@@H](CC(=O)O)C1=O [Example 1091] ({CH2CO}-FYD[NHexGly]YLGRK[Ahp(2)]PVSCG-OH; thioether N-14)		IC50 (293T cells expressing mouse VISTA, competition with biotinylated peptide (2 nM), read-out: HC CBA mVISTA IC50): 5.3 nM
CCCCCCN1CC(=O)N[C@@H](Cc2ccc(O)cc2)C(=O)N[C@@H](CCCC)C(=O)N[C@@H](CC(N)=O)C(=O)N[C@@H](CCCNC(=N)N)C(=O)N[C@@H](CC(C)C)C(=O)N[C@@H](CCCCC)C(=O)N2CCC[C@H]2C(=O)N[C@@H](C(C)C)C(=O)N[C@@H](CCCNC(=N)N)C(=O)N[C@H](C(=O)NCC(=O)O)CSCC(=O)N[C@@H](Cc2ccccc2)C(=O)N[C@@H](Cc2c[nH]c3ccccc23)C(=O)N[C@@H](CC(=O)O)C1=O [Example 1360] ({CH2CO}-FWD[NHexGly]Y[Nle]NRL[Ahp(2)]PVRCG-OH; thioether N-14)	28.4 nM	
CCCCCCN1CC(=O)N[C@@H](Cc2ccc(O)cc2)C(=O)N[C@@H](CC(C)C)C(=O)N[C@@H](CC(=O)O)C(=O)N[C@@H](CCCN)C(=O)N[C@@H](CC(C)C)C(=O)N[C@@H](CCCCC)C(=O)N2CCC[C@H]2C(=O)N[C@@H](C(C)C)C(=O)N[C@@H](CO)C(=O)N[C@H](C(=O)NCC(N)=O)CSCC(=O)N[C@@H](Cc2ccccc2)C(=O)N[C@@H](Cc2c[nH]c3ccccc23)C(=O)N[C@@H](CC(=O)O)C1=O [Example 1359] ({CH2CO}-FWD[NHexGly]YLD[Orn]L[Ahp(2)]PVSCG-NH2; thioether N-14)	17.1 nM	
CCCCCCN1CC(=O)N[C@@H](Cc2ccc(O)cc2)C(=O)N[C@@H](CC(C)C)C(=O)N[C@@H](CC(N)=O)C(=O)N[C@@H](CCCNC(=N)N)C(=O)N(C)[C@@H](CCCC)C(=O)N[C@@H](CCCCC)C(=O)N2CCC[C@H]2C(=O)N[C@@H](C(C)(C)C)C(=O)N[C@@H](CO)C(=O)N[C@H](C(=O)NCC(N)=O)CSCC(=O)N[C@@H](Cc2cccc(C#N)c2)C(=O)N[C@@H](Cc2ccc(O)cc2)C(=O)N[C@@H](CC(=O)O)C1=O [compound 1210] ({CH2CO}-[Phe(3-CN)]YD[NHexGly]YLNR[NMeNle][Ahp(2)]P[Tle]SCG-NH2; thioether N-14)	38.3 nM	
CCCCCCN1CC(=O)N[C@@H](Cc2ccc(O)cc2)C(=O)N[C@@H](CCCC)C(=O)N[C@@H](CC(N)=O)C(=O)N[C@@H](CCCNC(=N)N)C(=O)N[C@@H](CC(C)C)C(=O)N[C@@H](CCCCC)C(=O)N2CCC[C@H]2C(=O)N[C@@H](C(C)(C)C)C(=O)N[C@@H](CO)C(=O)N[C@H](C(=O)NCCOCCOCC(=O)N[C@@H](CCC(=O)NCCOCCOCC(=O)NCCCCCCCCCCC(=O)O)C(=O)O)CSCC(=O)N[C@@H](Cc2ccccc2)C(=O)N[C@@H](Cc2ccc(O)cc2)C(=O)N[C@@H](CC(=O)O)C1=O [compound 2238] ({CH2CO}-FYD[NHexGly]Y[Nle]NRL[Ahp(2)]P[Tle]SC[AEEA][γGlu][AEEA][Aun]-OH; thioether N-14)	38 nM	
CCCCCCN1CC(=O)N[C@@H](Cc2ccc(O)cc2)C(=O)N[C@@H](CC(C)C)C(=O)N[C@@H](CC(N)=O)C(=O)N[C@@H](CCCNC(=N)N)C(=O)N(C)[C@@H](CC(C)C)C(=O)N[C@@H](CCCCC)C(=O)N2CCC[C@H]2C(=O)N[C@@H](C(C)(C)C)C(=O)N[C@@H](CO)C(=O)N[C@H](C(=O)NCCOCCOCC(=O)N[C@@H](CCC(=O)NCCOCCOCC(=O)NCCCCCCCCCCC(=O)O)C(=O)O)CSCC(=O)N[C@@H](Cc2ccccc2)C(=O)N[C@@H](Cc2ccc(O)cc2)C(=O)N[C@@H](CC(=O)O)C1=O [compound 2270] ({CH2CO}-FYD[NHexGly]YLNR[NMeL][Ahp(2)]P[Tle]SC[AEEA][γGlu][AEEA][Aun]-OH; thioether N-14)	18.8 nM	
CCCCCCN1CC(=O)N[C@@H](Cc2ccc(O)cc2)C(=O)N[C@@H](CCCC)C(=O)N[C@@H](CC(=O)O)C(=O)N[C@@H](CCCNC(=N)N)C(=O)N(C)[C@@H](CCCC)C(=O)N[C@@H](CCCCC)C(=O)N2CCC[C@H]2C(=O)N[C@@H](C(C)C)C(=O)N[C@@H](CC(=O)O)C(=O)N[C@H](C(=O)N[C@@H](CO)C(N)=O)CSCC(=O)N[C@@H](Cc2cccc(C)c2)C(=O)N[C@@H](Cc2c[nH]c3ccccc23)C(=O)N[C@@H](CC(=O)O)C1=O [compound 1445] ({CH2CO}-[Phe(3-Me)]WD[NHexGly]Y[Nle]DR[NMeNle][Ahp(2)]PVDCS-NH2; thioether N-14)		IC50 (the 19th table, scaffold drawing 22, read-out: HC CBA mVISTA IC50): 9.9 nM
CCCCCCN1CC(=O)N[C@@H](Cc2ccc(O)cc2)C(=O)N[C@@H](CCCC)C(=O)N[C@@H](CC(=O)O)C(=O)N[C@@H](CCCN)C(=O)N[C@@H](CC(C)C)C(=O)N[C@@H](CCCCC)C(=O)N2CCC[C@H]2C(=O)N[C@@H](C(C)C)C(=O)N[C@@H](CC(=O)O)C(=O)N[C@H](C(=O)NC(CO)C(N)=O)CSCC(=O)N[C@@H](Cc2ccccc2)C(=O)N[C@@H](Cc2cccc(C)c2)C(=O)N[C@@H](CC(=O)O)C1=O (some centres unmarked) [compound 1331] ({CH2CO}-F[Phe(3-Me)]D[NHexGly]Y[Nle]D[Orn]L[Ahp(2)]PVDC[ξS]-NH2; thioether N-14)	14.3 nM	
CCCCCCN1CC(=O)N[C@@H](Cc2ccc(O)cc2)C(=O)N[C@@H](CCCC)C(=O)N[C@@H](CC(=O)O)C(=O)N[C@@H](CCCNC(N)=O)C(=O)N(C)[C@@H](CCCC)C(=O)N[C@@H](CCCCC)C(=O)N2CCC[C@H]2C(=O)N[C@@H](C(C)C)C(=O)N[C@@H](CC(=O)O)C(=O)N[C@H](C(=O)N[C@@H](CC(=O)O)C(N)=O)CSCC(=O)N[C@@H](Cc2ccc3ccccc3c2)C(=O)N[C@@H](Cc2ccc(O)cc2)C(=O)N[C@@H](CC(=O)O)C1=O [Ex 1265] ({CH2CO}-[2Nal]YD[NHexGly]Y[Nle]D[Cit][NMeNle][Ahp(2)]PVDCD-NH2; thioether N-14)		IC50 (cell-based binding high-content assay, mVISTA, the 16th table, read-out: HC CBA mVISTA IC50): 9 nM
CCCCCCN1CC(=O)N[C@@H](Cc2ccc(O)cc2)C(=O)N[C@@H](CCCC)C(=O)N[C@@H](CC(N)=O)C(=O)N[C@@H](CCCNC(N)=O)C(=O)N[C@@H](CC(C)C)C(=O)N[C@@H](CCCCC)C(=O)N2CCC[C@H]2C(=O)N[C@@H](C(C)C)C(=O)N[C@@H](CC(=O)O)C(=O)N[C@H](C(=O)NCC(=O)O)CSCC(=O)N[C@@H](Cc2ccccc2)C(=O)N[C@@H](Cc2c[nH]c3ccccc23)C(=O)N[C@@H](CC(=O)O)C1=O [Example 1363] ({CH2CO}-FWD[NHexGly]Y[Nle]N[Cit]L[Ahp(2)]PVDCG-OH; thioether N-14)	4 nM	
